Experimental data from paper PMC7867136, “Anti-Infective and Anti-Inflammatory Mode of Action of Peptide 19-2.5” (International Journal of Molecular Sciences, 2021).

Tested on: Salmonella minnesota strain R60 bacteria on human mononuclear cells
Assay: TNFα secretion by human mononuclear cells exposed to whole bacteria
Assay type: cell-based
Conditions: 10^6/ml Salmonella minnesota R60; antibiotics alone, or Pep19-2.5 added to ceftriaxone or ciprofloxacin; Figure 5
Description: Mononuclear cells (MNC) were isolated from heparinized blood samples obtained from healthy donors as described previously [1, 24]. […] For stimulation, 200 μL MNC (1 × 10^6 cells) in RPMI medium supplemented with PS/Glu2% (penicillin/streptomycin/glutamine, Biochrome, Berlin, Germany) plus AB serum (4%) was transferred into the wells of a 96-well culture plate.
The formulations to be tested for stimulation were preincubated for 30 min at 37 °C and added to the cultures at 20 μL per well. The cultures were incubated for 4 h at 37 °C with 5% CO2. Supernatants were collected after centrifugation of the culture plates for 10 min at 400× g and stored at 20 °C until immunological determination of tumor necrosis factor alpha (TNF-α), carried out with a sandwich enzyme-linked immunosorbent assay (ELISA) using a monoclonal antibody against TNF (BD Biosciences, Heidelberg, Germany) as described previously in detail [1]. In the case of the stimulation by the TNFα receptor, interleukin-8 in the supernatants was determined immunologically.

Compound: CO/N=C(\C(=O)N[C@@H]1C(=O)N2C(C(=O)O)=C(CSc3nc(=O)c(=O)[nH]n3C)CS[C@H]12)c1csc(N)n1 [ceftriaxone]
- Influence on TNFα release from hMNC exposed to whole bacteria: only marginally influence the cytokine release
